# Reference: US20240216900A1, “SABRE CATALYSTS CONTAINING FLUORINATED CARBON CHAINS FOR DELIVERY OF METAL-FREE MRI CONTRAST AGENTS” (The U.S.A., as represented by the Secretary, Department of …, priority 2022, published 2024)
# Experiment: Relaxation dynamics of hyperpolarized [1-13C]pyruvate (build-up time Tb and T1)
# Conditions: 0.4 μT
# Description: In addition, the relaxation dynamics of the [1-^13C]pyruvate were also studied.
# In addition, relaxation dynamics at earth field and 1.8 T are about the same as a non-fluorinated SABRE catalyst T1=28.9±1.6 s and 66.5±7 s, respectively.
compound,measurement,setting,value
"CC(=O)C(=O)O [[1-^13C]pyruvate, sodium [1-^13C]pyruvate]",total P13C (bound+free) build-up time Tb,"Example 7: Example 4 catalyst, DMSO, methanol",6.6 ± 3.0 s
same,total P13C (bound+free) build-up time Tb,"Example 25: Example 4 catalyst, DMSO, NFBME/MeOD fluorous mixture",3.0 ± 0.8 s
same,total P13C (bound+free) build-up time Tb,"Example 31: Example 4 catalyst, DMSO, CD3OD/Novec 7100",3.8 ± 0.6 s
same,total P13C (bound+free) build-up time Tb,"Example 32: Example 4 catalyst, PTMSO, CD3OD/Novec 7100",8.9 ± 2.5 s
